Data from US20220146500A1, “COMPOSITIONS AND METHODS FOR ENHANCING MUCOSAL IMMUNITY” (Yale University, priority 2019, published 2022).

Assays:
C. muridarum = settings: upper reproductive tract epithelial cell line; cited from earlier work
polyclonal T cell lines = assay: Culture of Chlamydia-specific polyclonal T cell lines with TGFβ1, IL-13 in supernatant after anti-CD3 activation; assay type: cell-based, mouse
Method: FIG. 9 is a histogram depicting polyclonal T cell lines with fading IL-13 production cultured as per usual protocol and, in parallel, the usual protocol plus 10 ng/ml TGFβ1. At the end of one week the T cell lines were activated with immobilized anti-CD3 and IL-13 levels measured in culture supernatant. […] It was also noted that expansions in TGFβ1 conditions yielded˜50% more cells per well.
Conventional multifunction Chlamydia-specific Th1 clone 4uvmo-3 was previously described (Jayarapu et al., 2009, Infect Immun 77:4469-4479). For the new B-cell APC-derived T cells C57BL/6 mice were treated with 2.5 mg of medroxyprogesterone (Pfizer) delivered subcutaneously, then infected 7 days later with 5×10^4 IFU C. muridarum. Mice that cleared infection, >6 weeks post-infection, were used as the source of immune B and T cells. Initial Chlamydia-specific immune-B-cell-derived polyclonal T cell populations and clones were derived as follows. Splenocytes were harvested from immune mice. Immune B cells were purified from a portion of those splenocytes by “untouched” magnetic bead separation (Miltenyi Biotech). Immune B cells were pulsed with UV-MoPn (3.5×10^6 IFU equivalents per 7.5×10^5 B cells suspended at 7.5×10^6/ml; ˜5 IFU/cell) or soluble antigen (7.5 ul per 7.5×10^5 B cells suspended at 7.5×10^6/ml) for 1 h at 37° C. Antigen-pulsed immune B cells were transferred to 7.5 cc of “RPMI complete media”, pelleted, media containing antigen removed, then washed two more times with 7.5 cc of media (˜400,000-fold) to eliminate all non-cell bound or internalized Chlamydia antigen; the purpose of extended washing was to ensure that antigen presentation was limited to immune B cells. Primary stimulation wells were setup with 2.5×10^6 immune splenocytes plus 7.5×10^5 antigen-pulsed immune B cells in 0.75 ml “RPMI complete media” supplemented with recombinant cytokines and conditioned media as previously described (Johnson et al., 2014, Immunology 142:248-257); later T cell derivations during the course of the project included addition of 5 ng/ml recombinant murine TGFβ1 to the media. Limiting dilution cloning was done in media supplemented with recombinant cytokines/conditioned media with 10-20 ng/ml TGFβ1. Re-stimulation/maintenance of T cell clones was done weekly in 48-well plates by adding 100-200 k T cell clone cells to 1.5×10^6 irradiated naive splenocytes and 7.5×10^5 irradiated relevant-antigen-pulsed/washed immune B cells as feeders in media supplemented with recombinant cytokines/conditioned media including 2.5-10 ng/ml TGFβ1. Recombinant mouse cytokines were purchased from the same vendor (R&D Systems; Minneapolis, Minn.) except for TGFP1 (Ebioscience, San Diego, Calif.). […]

## IL-13: Th2 cytokine
C. muridarum
  effect on C. muridarum replication: modestly enhances C. muridarum replication

## TGFβ1: recombinant murine TGFβ1
Polyclonal T cell lines; 10 ng/ml TGFβ1, lines with fading IL-13 production, anti-CD3 activation
  IL-13 production after one week of culture: With the exception of B2 all the lines made more IL-13
Polyclonal T cell lines; TGFβ1 conditions versus usual protocol
  more cells per well in expansions: ~50%
Polyclonal T cell lines; immune-B-cell-APC-derived polyclonal T cell lines
  durable IL-13 production with increasing passage number: required addition of TGFβ1 to the media
Polyclonal T cell lines; immune-splenocyte-APC-derived T cell lines
  IL-13 production: did not result in IL-13 production
